From US11384075B2, “Quinolinone compounds” (Janssen Pharmaceutica NV, priority 2017, dated 2022)

Columns and labels:
[1] = test system: NIH/3T3 cells transfected with the same control vector; experiment: NIH/3T3 mock cell proliferation assay (counter assay, general toxicity); format: cell-based; details: Mus musculus, NIH3T3, 72 h, 72-hr incubation, CellTiter Glo, starting with 30 μM; counter assay for general toxicity; read-out: NIH/3T3 MOCK CTG (IC50)
Protocol: NIH/3T3 Mock Cell Proliferation Assay
(§1) In day 1, 90 μL of cell suspension (NIH/3T3 cells transfected with the same control vector as in the above two proliferation assays) (total 30,000 cells per well in growth medium (DMEM containing 1% Glutamax, 10% FBS and 1% Pen/Strep)) was seeded in a 96-well plate and then incubated overnight at 37° C. and 5% CO2. In day 2, 10 μL of growth medium containing 10-fold stock solution of testing compound was added into cell cultures (9 dose points with 3× serial dilution, starting with 30 μM, 0.3% DMSO final). After 72-hr incubation at 37° C. and 5% CO2, in day 5 a volume of 50 μL CellTiter Glo (CTG) reagent was added into cell-containing 96-well plate and the plate was incubated at room temperature for 10 minutes before RLUs (relative light unit) were measured on a microplate reader with luminescence detection module. The RLU value was normalized to survival % and concentration-response curve was plotted using Prism to calculate IC50 (M), pIC50 (−log IC50) and HillSlope value.

[2] = molecular target: T1, NIH/3T3 cells overexpressing FGFR3 V555M-TACC3 fusion protein (Homo sapiens, UniProt P22607, V555M, cells depend on it); experiment: NIH/3T3 FGFR3 V555M-TACC3 cell proliferation assay; format: cell-based; details: 72-hr incubation, CellTiter Glo, starting with 10 μM; read-out: NIH/3T3 FGFR3 V555M-TACC3 CTG (IC50)
T1 construct: NIH/3T3 FGFR3 V555M-TACC3 CTG (IC50); other: 72-hr incubation, CellTiter Glo, starting with 10 μM; fused on or other part: Q9Y6A5 (Transforming acidic coiled-coil-containing protein 3)
T1 sequence (P22607 whole entry V555M, the tested form may be a part): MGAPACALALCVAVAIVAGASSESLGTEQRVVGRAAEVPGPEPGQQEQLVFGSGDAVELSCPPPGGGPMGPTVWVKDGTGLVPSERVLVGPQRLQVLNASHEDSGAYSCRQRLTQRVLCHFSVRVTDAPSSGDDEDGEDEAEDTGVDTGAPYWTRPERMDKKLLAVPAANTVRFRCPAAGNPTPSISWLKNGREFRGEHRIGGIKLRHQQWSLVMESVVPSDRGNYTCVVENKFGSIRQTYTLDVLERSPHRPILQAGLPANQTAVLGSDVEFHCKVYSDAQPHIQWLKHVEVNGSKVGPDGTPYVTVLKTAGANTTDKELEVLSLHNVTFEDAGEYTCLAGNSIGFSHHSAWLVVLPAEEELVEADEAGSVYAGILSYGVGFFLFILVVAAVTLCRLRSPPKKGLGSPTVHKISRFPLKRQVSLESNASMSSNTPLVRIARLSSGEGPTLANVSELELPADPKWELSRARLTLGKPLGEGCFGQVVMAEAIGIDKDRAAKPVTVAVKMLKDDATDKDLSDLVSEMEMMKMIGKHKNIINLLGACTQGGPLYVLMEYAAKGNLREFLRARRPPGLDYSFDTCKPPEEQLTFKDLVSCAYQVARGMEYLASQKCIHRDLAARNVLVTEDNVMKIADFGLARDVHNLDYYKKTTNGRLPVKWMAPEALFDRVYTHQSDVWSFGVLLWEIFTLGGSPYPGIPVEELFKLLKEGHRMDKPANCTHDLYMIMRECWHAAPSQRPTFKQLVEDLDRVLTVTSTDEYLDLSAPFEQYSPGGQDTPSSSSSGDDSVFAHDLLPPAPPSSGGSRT
Protocol: NIH/3T3 FGFR3 V555M-TACC3 Cell Proliferation Assay
as §1, with “cells overexpressing FGFR3 V555M-TACC3 fusion protein)” for “cells transfected with the same control vector as in the above two proliferation assays)”, “with 4×” for “with 3×”, “with 10” for “with 30”, “μM, 0.1%” for “μM, 0.3%”

[3] = molecular target: T2, human FGFR3 V555M enzyme (cytoplasmic domain carrying V555M mutation) (Homo sapiens, UniProt P22607, V555M); experiment: FGFR3 V555M mobility shift assay (enzymatic assay); format: biochemical; details: 30 μM ATP, 45 minutes at 30° C., Caliper EZ reader II
T2 construct: human FGFR3 V555M enzyme (cytoplasmic domain carrying V555M mutation, from Carna Biosciences); purchased Carna Biosciences
T2 sequence (P22607 397-806 V555M limits assumed): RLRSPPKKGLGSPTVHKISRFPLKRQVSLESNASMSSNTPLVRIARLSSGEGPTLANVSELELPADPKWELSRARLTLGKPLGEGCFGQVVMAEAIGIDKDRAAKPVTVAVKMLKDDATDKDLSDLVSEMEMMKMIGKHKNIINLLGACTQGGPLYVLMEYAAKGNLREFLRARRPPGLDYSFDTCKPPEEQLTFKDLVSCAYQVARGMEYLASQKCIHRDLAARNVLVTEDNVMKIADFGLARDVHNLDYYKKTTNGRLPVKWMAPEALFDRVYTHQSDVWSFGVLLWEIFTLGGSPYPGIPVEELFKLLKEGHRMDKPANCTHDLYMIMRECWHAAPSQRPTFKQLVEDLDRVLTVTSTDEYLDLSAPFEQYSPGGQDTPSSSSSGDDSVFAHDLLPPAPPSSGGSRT
Protocol: FGFR3 V555M Mobility Shift Assay (Enzymatic Assay)
(§2) In a final reaction volume of 25 μL, 0.04 ng/μL human FGFR3 V555M enzyme (cytoplasmic domain carrying V555M mutation, from Carna Biosciences) was incubated with 30 μM ATP, 1 μM FL-peptide 30 substrate and 250 nL of testing compound (1% DMSO final) in assay buffer (100 mM HEPES pH 7.4, 10 mM MgCl2, 0.003% Brij35, 1 mM DTT). After incubation for 45 minutes at 30° C. the reaction was stopped with 10 μL of 0.5M EDTA pH 8.0, and then 25 μL of reaction mixture was transferred to reading plate and measured on Caliper EZ reader II. The substrate-product conversion rate was used as raw data for normalization and concentration-response curve (10 dose points with 4× serial dilution, starting with 10 μM) was plotted using Prism to calculate IC50 (M), pIC50 (−log IC50) and HillSlope value.

[4] = molecular target: T3, NIH/3T3 cells overexpressing FGFR3 WT-TACC3 fusion protein (Homo sapiens, UniProt P22607); experiment: NIH/3T3 FGFR3 WT-TACC3 cell proliferation assay; format: cell-based; details: 72-hr incubation, CellTiter Glo, starting with 10 μM; read-out: NIH/3T3 FGFR3 WT-TACC3 CTG (IC50)
T3 construct: NIH/3T3 FGFR3 WT-TACC3 CTG (IC50); other: 72-hr incubation, CellTiter Glo, starting with 10 μM; fused on or other part: Q9Y6A5 (Transforming acidic coiled-coil-containing protein 3)
T3 sequence (P22607 whole entry, change not shown, the tested form may be a part): as the sequence (P22607 whole entry V555M, the tested form may be a part) above, with M555V counted along it
Protocol: NIH/3T3 FGFR3 WT-TACC3 Cell Proliferation Assay
as §1, with “cells overexpressing FGFR3 WT-TACC3 fusion protein)” for “cells transfected with the same control vector as in the above two proliferation assays)”, “with 4×” for “with 3×”, “with 10” for “with 30”, “μM, 0.1%” for “μM, 0.3%”

[5] = molecular target: T4, human FGFR3 wild type enzyme (cytoplasmic domain) (Homo sapiens, UniProt P22607); experiment: FGFR3 wild type mobility shift assay (enzymatic assay); format: biochemical; details: 75 μM ATP, 50 minutes at 30° C., Caliper EZ reader II
T4 construct: human FGFR3 wild type enzyme (cytoplasmic domain, from Carna Biosciences); purchased Carna Biosciences
T4 sequence (P22607 397-806 limits assumed): as the sequence (P22607 397-806 V555M limits assumed) above, with M159V counted along it
Protocol: FGFR3 Wild Type Mobility Shift Assay (Enzymatic Assay)
as §2, with “FGFR3 wild type” for “FGFR3 V555M”, “(cytoplasmic domain,” for “(cytoplasmic domain carrying V555M mutation,”, “with 75” for “with 30”, “for 50” for “for 45”

SMILES | IC50 [1] | GI50 [2] | IC50 [3] | GI50 [4] | IC50 [5]
CC(Nc1c(-c2nc3ccc(N4CCC(OC(F)(F)F)CC4)cc3[nH]2)c(=O)[nH]c2ccccc12)c1ncccn1 (single isomer, unassigned) [Compound 43a, (S*)-4-((1-(pyrimidin-2-yl)ethyl)amino)-3-(6-(4-(trifluoromethoxy)piperidin-1-yl)-1H-benzo[d]imidazol-2-yl)quinolin-2(1H)-one] | 8.27 µM | 9.93 nM | 0.643 nM | 20.3 nM | 1 nM
CC(Nc1c(-c2nc3ccc(C4CCOCC4)cc3[nH]2)c(=O)[nH]c2ccccc12)c1ncccn1 (single isomer, unassigned) [Compound 29a, (S*)-4-((1-(pyrimidin-2-yl)ethyl)amino)-3-(6-(tetrahydro-2H-pyran-4-yl)-1H-benzo[d]-imidazol-2-yl)quinolin-2(1H)-one] | 4.69 µM | 10.8 nM | 0.15 nM | 8.46 nM | 0.242 nM
COC(=O)C1CN(c2ccc3nc(-c4c(N[C@@H](C)c5ccccn5)c5ccccc5[nH]c4=O)[nH]c3c2)CCO1 (mixture of isomers) [Compound 59, (Rac)-methyl 4-(2-(2-oxo-4-(((S)-1-(pyridin-2-yl)ethyl)amino)-1,2-dihydroquinolin-3-yl)-1H-benzo[d]imidazol-6-yl)morpholine-2-carboxylate] | 7.29 µM | 61.7 nM | 0.359 nM | 31.9 nM | 0.788 nM
CC(Nc1c(-c2nc3cc(C(F)(F)F)c(N4CCC(C(=O)OC(C)(C)C)CC4)cc3[nH]2)c(=O)[nH]c2ccccc12)c1ncccn1 (single isomer, unassigned) [Compound 57, (S*)-tert-butyl 1-(2-(2-oxo-4-((1-(pyrimidin-2-yl)ethyl)amino)-1,2-dihydroquinolin-3-yl)-5-(trifluoromethyl)-1H-benzo[d]imidazol-6-yl)piperidine-4-carboxylate] | – | – | 19.2 nM | – | 61.9 nM
CC(Nc1c(-c2nc3ccc(N4C[C@@H](C)O[C@H](C)C4)cc3[nH]2)c(=O)[nH]c2ccccc12)c1ncccn1 (single isomer, unassigned) [Compound 37b, 3-(6-((2R,6R)-2,6-dimethylmorpholino)-1H-benzo[d]imidazol-2-yl)-4-(((R*)-1-(pyrimidin-2-yl)ethyl)amino)quinolin-2(1H)-one] | – | – | 20.2 nM | – | 29.3 nM
COc1ccnc(C(C)Nc2c(-c3nc4ccc(N5CCOCC5)cc4[nH]3)c(=O)[nH]c3ccccc23)c1 (single isomer, unassigned) [Compound 48a, (S*)-4-((1-(4-methoxypyridin-2-yl)ethyl)amino)-3-(6-morpholino-1H-benzo[d]imidazol-2-yl)quinolin-2(1H)-one] | 5.67 µM | 547 nM | 5.41 nM | 454 nM | 19.9 nM
Cc1ccnc(C(C)Nc2c(-c3nc4ccc(N5CCOCC5)cc4[nH]3)c(=O)[nH]c3ccccc23)n1 (single isomer, unassigned) [Compound 34a, (S*)-4-((1-(4-methylpyrimidin-2-yl)ethyl)amino)-3-(6-morpholino-1H-benzo[d]imidazol-2-yl)quinolin-2(1H)-one] | 1.32 µM | 70.4 nM | 1.59 nM | 43.1 nM | 9 nM
CC(Nc1c(-c2nc3ccc(N4CCN(C)CC4)cc3[nH]2)c(=O)[nH]c2ccccc12)c1cocn1 (single isomer, unassigned) [Compound 11a, (S*)-3-(6-(4-methylpiperazin-1-yl)-1H-benzo[d]imidazol-2-yl)-4-((1-(oxazol-4-yl)-ethyl)amino)quinolin-2(1H)-one] | – | – | 12 nM | – | 32.6 nM
C[C@H](Nc1c(-c2nc3ccc(N4CCOCC4)cc3[nH]2)c(=O)[nH]c2ccccc12)c1nccc(C2CC2)n1 (single isomer, unassigned) [Compound 50a, (S*)-4-((1-(4-cyclopropylpyrimidin-2-yl)ethyl)amino)-3-(6-morpholino-H-benzo[d]-imidazol-2-yl)quinolin-2(1H)-one] | – | – | 8.75 nM | – | 48.9 nM
CC(C)c1ccnc(C(C)Nc2c(-c3nc4ccc(N5CCOCC5)cc4[nH]3)c(=O)[nH]c3ccccc23)n1 (single isomer, unassigned) [Compound 49a, (S*)-4-((1-(4-isopropylpyrimidin-2-yl)ethyl)amino)-3-(6-morpholino-1H-benzo[d]-imidazol-2-yl)quinolin-2(1H)-one] | – | – | 7.07 nM | – | 27 nM
CC(Nc1c(-c2nc3ccc(-c4cnn(C)c4)cc3[nH]2)c(=O)[nH]c2ccccc12)c1ncccn1 (single isomer, unassigned) [Compound 53b, (R*)-3-(6-(1-methyl-1H-pyrazol-4-yl)-1H-benzo[d]imidazol-2-yl)-4-((1-(pyrimidin-2-yl)ethyl)amino)quinolin-2(1H)-one] | – | – | 15.3 nM | – | 35.2 nM
CC(Nc1c(-c2nc3ccc(N4CCN(CCC(F)(F)F)CC4)cc3[nH]2)c(=O)[nH]c2ccccc12)c1ncccn1 (single isomer, unassigned) [Compound 41b, (R*)-4-((1-(pyrimidin-2-yl)ethyl)amino)-3-(6-(4-(3,3,3-trifluoropropyl)piperazin-1-yl)-1H-benzo[d]imidazol-2-yl)quinolin-2(1H)-one] | – | – | 19.4 nM | – | 39.4 nM
